Test results as given in patent US10975030B2, “Grp94 selective inhibitors and uses thereof” (University of Kansas, priority 2016, dated 2021).
Values joined by “and” are separate entries in the source; they are usually repeats but may differ in a detail not shown here. Equal values may be shown once.

What was measured:
[1] = molecular target: Grp94 (recombinant cGrp94) (Canis lupus familiaris (Dog) (Canis familiaris), UniProt P41148); assay: Fluorescence polarization (FP) assay, cGrp94 with FITC-GDA; type: binding; settings: apparent Kd, cGrp94 and FITC-GDA, triplicates, ± SEM, read-out: Kd Grp94
Sequence of Grp94 (recombinant cGrp94) (P41148 22-804): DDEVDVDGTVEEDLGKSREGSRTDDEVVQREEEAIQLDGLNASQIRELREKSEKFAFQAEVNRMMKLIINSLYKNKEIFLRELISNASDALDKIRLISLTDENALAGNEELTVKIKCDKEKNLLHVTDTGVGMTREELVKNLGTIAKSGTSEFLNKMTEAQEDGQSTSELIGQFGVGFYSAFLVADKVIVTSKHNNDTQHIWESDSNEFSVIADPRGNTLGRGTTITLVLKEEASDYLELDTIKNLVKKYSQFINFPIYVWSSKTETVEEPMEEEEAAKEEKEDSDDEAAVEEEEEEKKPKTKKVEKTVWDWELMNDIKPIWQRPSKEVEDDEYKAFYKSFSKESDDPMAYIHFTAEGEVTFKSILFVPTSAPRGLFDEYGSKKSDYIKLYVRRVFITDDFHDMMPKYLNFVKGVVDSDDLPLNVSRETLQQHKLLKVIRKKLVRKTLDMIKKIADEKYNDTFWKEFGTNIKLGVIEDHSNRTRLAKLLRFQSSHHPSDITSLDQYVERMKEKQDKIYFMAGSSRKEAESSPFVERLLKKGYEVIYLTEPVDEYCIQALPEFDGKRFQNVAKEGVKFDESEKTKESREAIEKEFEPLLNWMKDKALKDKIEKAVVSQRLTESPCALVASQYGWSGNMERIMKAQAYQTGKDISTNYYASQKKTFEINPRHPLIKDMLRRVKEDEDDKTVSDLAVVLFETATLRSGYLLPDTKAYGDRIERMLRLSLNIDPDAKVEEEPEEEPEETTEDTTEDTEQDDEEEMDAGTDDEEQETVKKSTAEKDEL
Method: (§1) Fluorescence Polarization. Assay buffer (25 μL, 20 mM HEPES pH 7.3, 50 mM KCl, 5 mM MgCl2, 1 mM DTT, 20 mM Na2MoO4, 0.01% NP-40, and 0.5 mg/mL BGG) was added to 96-well plate (black well, black bottom) followed by the desired compound at the indicated final concentrations in DMSO (1% DMSO final concentration). […] Plates were incubated with rocking for 5 h at 4° C. […] Percent FITC-GDA bound was determined by using the DMSO millipolarization unit (mP) as the 100% bound value and the 0% for FITC-GDA. Kd values were calculated from separate experiments performed in triplicate using GraphPad Prism.

Hsp90α = Hsp90α (Homo sapiens (Human), UniProt P07900); assay: Fluorescence polarization (FP) assay, Hsp90α; type: binding
Method: as §1

| SMILES | Kd [1] | Kd (Hsp90α) [µM] |
| --- | --- | --- |
| Cc1ccccc1-c1cccn1-c1ccc(C(N)=O)c(N[C@H]2CC[C@H](O)CC2)c1 [Compound 5b, 2-(((1r,4r)-4-hydroxycyclohexyl)amino)-4-(2-(o-tolyl)-1H-pyrrol-1-yl)benzamide] | 9.9 ± 0.54 µM | > 100 |
| NC(=O)c1ccc(-n2cccc2-c2ccccc2Cl)cc1N[C@H]1CC[C@H](O)CC1 [Compound 5e, 4-(2-(2-chlorophenyl)-1H-pyrrol-1-yl)-2-(((1r,4r)-4-hydroxycyclohexyl)amino)benzamide] | – | > 100 |
| NC(=O)c1ccc(-n2cccc2-c2cccc(Cl)c2)cc1N[C@H]1CC[C@H](O)CC1 [Compound 5f, 4-(2-(3-chlorophenyl)-1H-pyrrol-1-yl)-2-(((1r,4r)-4-hydroxycyclohexyl)amino)benzamide] | – | > 100 |
| NC(=O)c1ccc(-n2cccc2-c2ccc(Cl)cc2)cc1N[C@H]1CC[C@H](O)CC1 [Compound 5g, 4-(2-(4-chlorophenyl)-1H-pyrrol-1-yl)-2-(((1r,4r)-4-hydroxycyclohexyl)amino)benzamide] | 10.6 ± 0.54 µM | > 100 |
| NC(=O)c1ccc(-n2cccc2-c2cccnc2)cc1N[C@H]1CC[C@H](O)CC1 [Compound 5i, 2-(((1r,4r)-4-hydroxycyclohexyl)amino)-4-(2-(pyridin-3-yl)-1H-pyrrol-1-yl)benzamide] | 5.5 ± 0.15 µM | > 100 |
| NC(=O)c1ccc(-n2cccc2Cc2ccccc2)cc1N[C@H]1CC[C@H](O)CC1 [Compound 8a, 4-(2-benzyl-1H-pyrrol-1-yl)-2-(((1r,4r)-4-hydroxycyclohexyl)amino)benzamide] | ~1.3 µM and 1.13 µM | > 100 |
| NC(=O)c1ccc(-n2cccc2Cc2ccccc2Cl)cc1N[C@H]1CC[C@H](O)CC1 [Compound 8b, 4-(2-(2-chlorobenzyl)-1H-pyrrol-1-yl)-2-(((1r,4r)-4-hydroxycyclohexyl)amino)benzamide] | 0.83 ± 0.12 µM | > 100 |
| NC(=O)c1ccc(-n2cccc2Cc2cccc(F)c2)cc1N[C@H]1CC[C@H](O)CC1 [Compound 8f, 4-(2-(3-fluorobenzyl)-1H-pyrrol-1-yl)-2-(((1r,4r)-4-hydroxycyclohexyl)amino)benzamide] | 4.53 ± 0.12 µM | > 100 |
| NC(=O)c1ccc(-n2cccc2Cc2ccc(F)cc2)cc1N[C@H]1CC[C@H](O)CC1 [Compound 8g, 4-(2-(4-fluorobenzyl)-1H-pyrrol-1-yl)-2-(((1r,4r)-4-hydroxycyclohexyl)amino)benzamide] | 8.35 ± 0.14 µM | > 100 |
| NC(=O)c1ccc(-n2cccc2Cc2ccccc2Br)cc1N[C@H]1CC[C@H](O)CC1 [Compound 8h, 4-(2-(2-bromobenzyl)-1H-pyrrol-1-yl)-2-(((1r,4r)-4-hydroxycyclohexyl)amino)benzamide] | 12.9 ± 0.11 µM | > 100 |
| NC(=O)c1ccc(-n2cccc2Cc2cccc(O)c2)cc1N[C@H]1CC[C@H](O)CC1 [Compound 8k, 4-(2-(3-hydroxybenzyl)-1H-pyrrol-1-yl)-2-(((1r,4r)-4-hydroxycyclohexyl)amino)benzamide] | > 25 µM | > 100 |
| COc1ccccc1Cc1cccn1-c1ccc(C(N)=O)c(N[C@H]2CC[C@H](O)CC2)c1 [Compound 8m, 2-(((1r,4r)-4-hydroxycyclohexyl)amino)-4-(2-(2-methoxybenzyl)-1H-pyrrol-1-yl)benzamide] | 1.15 µM | > 100 |
| NC(=O)c1ccc(-n2cccc2Cc2ccncc2)cc1N[C@H]1CC[C@H](O)CC1 [Compound 8q, 2-(((1r,4r)-4-hydroxycyclohexyl)amino)-4-(2-(pyridin-4-ylmethyl)-1H-pyrrol-1-yl)benzamide] | 13.2 ± 0.12 µM | > 100 |
| NC(=O)c1ccc(-n2cccc2CCc2ccccc2)cc1N[C@H]1CC[C@H](O)CC1 [Compound 9, 2-(((1r,4r)-4-hydroxycyclohexyl)amino)-4-(2-phenethyl-1H-pyrrol-1-yl)benzamide] | > 25 µM | > 100 |

Further lines, results first:

| Kd [1] | Kd (Hsp90α) [µM] | SMILES |
| --- | --- | --- |
| ~9 µM and 9.05 µM | > 100 | NC(=O)c1ccc(-n2cccc2-c2ccccc2)cc1N[C@H]1CC[C@H](O)CC1 [Compound 5a, 2-(((1r,4r)-4-hydroxycyclohexyl)amino)-4-(2-phenyl-1H-pyrrol-1-yl)benzamide] |
| 9.43 ± 0.26 µM | > 100 | Cc1cccc(-c2cccn2-c2ccc(C(N)=O)c(N[C@H]3CC[C@H](O)CC3)c2)c1 [Compound 5c, 2-(((1r,4r)-4-hydroxycyclohexyl)amino)-4-(2-(m-tolyl)-1H-pyrrol-1-yl)benzamide] |
| 8.35 ± 0.14 µM | > 100 | Cc1ccc(-c2cccn2-c2ccc(C(N)=O)c(N[C@H]3CC[C@H](O)CC3)c2)cc1 [Compound 5d, 2-(((1r,4r)-4-hydroxycyclohexyl)amino)-4-(2-(p-tolyl)-1H-pyrrol-1-yl)benzamide] |
| 14 ± 0.27 µM | > 100 | NC(=O)c1ccc(-n2cccc2-c2ccccn2)cc1N[C@H]1CC[C@H](O)CC1 [Compound 5h, 2-(((1r,4r)-4-hydroxycyclohexyl)amino)-4-(2-(pyridin-2-yl)-1H-pyrrol-1-yl)benzamide] |
| 13.2 ± 0.12 µM | > 100 | NC(=O)c1ccc(-n2cccc2-c2ccncc2)cc1N[C@H]1CC[C@H](O)CC1 [Compound 5j, 2-(((1r,4r)-4-hydroxycyclohexyl)amino)-4-(2-(pyridin-4-yl)-1H-pyrrol-1-yl)benzamide] |
| 2.45 ± 0.45 µM | > 100 | NC(=O)c1ccc(-n2cccc2Cc2cccc(Cl)c2)cc1N[C@H]1CC[C@H](O)CC1 [Compound 8c] |
| > 25 µM | > 100 | NC(=O)c1ccc(-n2cccc2Cc2ccc(Cl)cc2)cc1N[C@H]1CC[C@H](O)CC1 [Compound 8d, 4-(2-(4-chlorobenzyl)-1H-pyrrol-1-yl)-2-(((1r,4r)-4-hydroxycyclohexyl)amino)benzamide] |
| 4.2 ± 0.23 µM | > 100 | Cc1ccccc1Cc1cccn1-c1ccc(C(N)=O)c(N[C@H]2CC[C@H](O)CC2)c1 [Compound 8i, 2-(((1r,4r)-4-hydroxycyclohexyl)amino)-4-(2-(2-methylbenzyl)-1H-pyrrol-1-yl)benzamide] |
| – | > 100 | NC(=O)c1ccc(-n2cccc2Cc2ccc(O)cc2)cc1N[C@H]1CC[C@H](O)CC1 [Compound 8l, 4-(2-(4-hydroxybenzyl)-1H-pyrrol-1-yl)-2-(((1r,4r)-4-hydroxycyclohexyl)amino)benzamide] |
| > 25 µM | > 100 | NC(=O)c1ccc(-n2cccc2Cc2c(F)cccc2F)cc1N[C@H]1CC[C@H](O)CC1 [Compound 8n, 4-(2-(2,6-difluorobenzyl)-1H-pyrrol-1-yl)-2-(((1r,4r)-4hydroxycyclohexyl)amino)benzamide] |
| 14 ± 0.27 µM | > 100 | NC(=O)c1ccc(-n2cccc2Cc2ccccn2)cc1N[C@H]1CC[C@H](O)CC1 [Compound 8o, 2-(((1r,4r)-4-hydroxycyclohexyl)amino)-4-(2-(pyridin-2-ylmethyl)-1H-pyrrol-1-yl)benzamide] |
| 5.5 ± 0.15 µM | > 100 | NC(=O)c1ccc(-n2cccc2Cc2cccnc2)cc1N[C@H]1CC[C@H](O)CC1 [Compound 8p, 2-(((1r,4r)-4-hydroxycyclohexyl)amino)-4-(2-(pyridin-3-ylmethyl)-1H-pyrrol-1-yl) benzamide] |
